Like-named read-outs stand apart in the source and are kept apart here. Positions of bridges follow the written chain, without caps; N, C: chain ends. Non-standard residues stand in square brackets, D forms with d. Residues, ends and D or L forms follow the SMILES beside them. Trp(6-Cl) = N[C@@H](Cc1c[nH]c2cc(Cl)ccc12)C(=O)O; 2Nal = N[C@@H](Cc1ccc2ccccc2c1)C(=O)O; R8 = C=CCCCCCC[C@@](C)(N)C(=O)O; Cba = N[C@@H](CC1CCC1)C(=O)O; S5 = C=CCCC[C@](C)(N)C(=O)O; Nle = CCCC[C@H](N)C(=O)O; Dap = NC[C@H](N)C(=O)O; Ahx = NCCCCCC(=O)O
Tests used:
HCT116 cells = assay: Lactate dehydrogenase (LDH) release assay; type: cell-based
Experimental: (§1) HCT116 cells were stably transfected with a p53 responsive β-lactamase reporter and expanded in McCoy’s 5 A Medium with 10% fetal bovine serum (FBS), Blasticidin, and Penicillin/Streptomycin and then transferred to 1.5 ml freezing vials and stored under liquid nitrogen in growth media containing 5% DMSO. […] The cells were then seeded into a 384-well plate at a density of 8000 cells per well. […] The final working concentration of DMSO was 0.5%. Lactate dehydrogenase release was detected using the CytoTox-ONE Homogenous Membrane Integrity Assay Kit (Promega), as per the manufacturer’s instructions. Measurements were carried out using the Tecan plate reader. […] Measurements were taken a minimum of three times (biological replicates) and values are reported as geometric means of the replicates.

[1] = Lactate dehydrogenase (LDH) release assay; type: cell-based
Experimental: as §1

CC(=O)N[C@@H](CCCNC(=N)N)C(=O)NCCCCCC(=O)N[C@@H](CCCCN=[N+]=[N-])C(=O)N[C@@H](CC(C)C)C(=O)N[C@H](C(=O)N[C@@H](Cc1ccccc1)C(=O)N[C@]1(C)CCCCCCC=CCCC[C@@](C)(C(=O)N[C@@H](CO)C(=O)N[C@@H](C)C(=O)N[C@@H](C)C(N)=O)NC(=O)[C@H](CC2CCC2)NC(=O)[C@H](CCC(N)=O)NC(=O)[C@H](C)NC(=O)[C@H](Cc2c[nH]c3ccccc23)NC(=O)[C@H](Cc2ccc(O)cc2)NC(=O)[C@H](CCC(=O)O)NC1=O)[C@@H](C)O [MP-005]
LDH: Cytotoxicity assay: % Effect (HCT116 cells): 39.54%
EC50 ([1]; LDH: Cytotoxicity assay: EC50): > 50 µM

CC(=O)N[C@H](C(=O)N[C@@H](CO)C(=O)N[C@@H](Cc1ccccc1)C(=O)N[C@]1(C)CCCCCCC=CCCC[C@@](C)(C(=O)N[C@@H](CCC(=O)O)C(N)=O)NC(=O)[C@H](CC2CCC2)NC(=O)[C@H](CC(C)C)NC(=O)[C@H](C)NC(=O)[C@H](Cc2c[nH]c3cc(Cl)ccc23)NC(=O)[C@H](Cc2ccc(O)cc2)NC(=O)[C@H](CCC(=O)O)NC1=O)[C@@H](C)O [MP-043] (Ac-TSF[R8]EY[Trp(6-Cl)]AL[Cba][S5]E-NH2; staple 4-11)
LDH: Cytotoxicity assay % Effect (HCT116 cells): 3.493%
EC50 ([1]; LDH: Cytotoxicity assay EC50): > 50 µM

CC(=O)N[C@@H](CCCCN)C(=O)N[C@@H](CCCCN)C(=O)N[C@H](C(=O)N[C@@H](CO)C(=O)N[C@@H](Cc1ccccc1)C(=O)N[C@]1(C)CCCCCCC=CCCC[C@@](C)(C(N)=O)NC(=O)[C@H](CC2CCC2)NC(=O)[C@H](CC(C)C)NC(=O)[C@H](C)NC(=O)[C@H](Cc2c[nH]c3ccccc23)NC(=O)[C@H](Cc2ccc(O)cc2)NC(=O)[C@H](CCC(=O)O)NC1=O)[C@@H](C)O [MP-087] (Ac-KKTSF[R8]EYWAL[Cba][S5]-NH2; staple 6-13)
LDH: Cytotoxicity assay % Effect (HCT116 cells): 23.77%
EC50 ([1]; LDH: Cytotoxicity assay EC50): 35.2 µM

CC(=O)N[C@H](C(=O)N[C@@H](CO)C(=O)N[C@@H](Cc1ccccc1)C(=O)N[C@]1(C)CCCCCCC=CCCC[C@@](C)(C(=O)N[C@@H](CCC(=O)O)C(N)=O)NC(=O)[C@H](CC2CCC2)NC(=O)[C@H](CC(C)C)NC(=O)[C@H](C)NC(=O)[C@H](Cc2c[nH]c3ccccc23)NC(=O)[C@H](Cc2ccc(O)cc2)NC(=O)[C@H](CCC(=O)O)NC1=O)[C@@H](C)O [MP-140] (Ac-TSF[R8]EYWAL[Cba][S5]E-NH2; staple 4-11)
LDH: Cytotoxicity assay % Effect (HCT116 cells): 11.41%
EC50 ([1]; LDH: Cytotoxicity assay EC50): > 50 µM

CCCC[C@@H]1NC(=O)[C@H](CC(C)C)NC(=O)[C@H](C)NC(=O)[C@H](Cc2c[nH]c3ccccc23)NC(=O)[C@H](Cc2ccc(O)cc2)NC(=O)[C@H](CCC(=O)O)NC(=O)[C@](C)(NC(=O)[C@H](Cc2ccc3ccccc3c2)NC(=O)[C@H](CO)NC(=O)[C@@H](NC(C)=O)[C@@H](C)O)CCCCCCC=CCCC[C@@](C)(C(N)=O)NC1=O [MP-147] (Ac-TS[2Nal][R8]EYWAL[Nle][S5]-NH2; staple 4-11)
LDH: Cytotoxicity assay % Effect (HCT116 cells): 20.59%
EC50 ([1]; LDH: Cytotoxicity assay EC50): > 50 µM

CCCC[C@@H]1NC(=O)[C@H](CC(C)C)NC(=O)[C@H](C)NC(=O)[C@H](Cc2c[nH]c3ccccc23)NC(=O)[C@H](Cc2ccc(O)cc2)NC(=O)[C@H](CCC(=O)O)NC(=O)[C@](C)(NC(=O)[C@H](Cc2ccccc2)NC(=O)[C@H](CO)NC(=O)[C@@H](NC(C)=O)[C@@H](C)O)CCCCCCC=CCCC[C@@](C)(C(N)=O)NC1=O [MP-151]
LDH: Cytotoxicity assay % Effect (HCT116 cells): 9.894%
EC50 ([1]; LDH: Cytotoxicity assay EC50): > 50 µM

CCCC[C@H](NC(=O)[C@H](CC(C)C)NC(=O)[C@H](C)NC(=O)[C@H](Cc1c[nH]c2ccccc12)NC(=O)[C@H](Cc1ccc(O)cc1)NC(=O)[C@H](CCC(=O)O)NC(=O)C(C)(C)NC(=O)[C@H](Cc1ccccc1)NC(=O)[C@H](CO)NC(=O)[C@@H](NC(C)=O)[C@@H](C)O)C(=O)NC(C)(C)C(N)=O [MP-156]
LDH: Cytotoxicity assay % Effect (HCT116 cells): -1.482%
EC50 ([1]; LDH: Cytotoxicity assay EC50): > 50 µM

CC(=O)N[C@@H](CCCCN)C(=O)N[C@@H](CCCCN)C(=O)N[C@H](C(=O)N[C@@H](CO)C(=O)N[C@@H](Cc1ccccc1)C(=O)N[C@]1(C)CCCCCCC=CCCC[C@@](C)(C(=O)N[C@@H](CCC(=O)O)C(N)=O)NC(=O)[C@H](CC2CCC2)NC(=O)[C@H](CC(C)C)NC(=O)[C@H](C)NC(=O)[C@H](Cc2c[nH]c3ccccc23)NC(=O)[C@H](Cc2ccc(O)cc2)NC(=O)[C@H](CCC(=O)O)NC1=O)[C@@H](C)O [MP-157] (Ac-KKTSF[R8]EYWAL[Cba][S5]E-NH2; staple 6-13)
LDH: Cytotoxicity assay % Effect (HCT116 cells): 5.957%
EC50 ([1]; LDH: Cytotoxicity assay EC50): > 50 µM

CC(=O)N[C@@H](CCCCN=[N+]=[N-])C(=O)NCCC(=O)N[C@@H](CC(C)C)C(=O)N[C@H](C(=O)N[C@@H](Cc1ccccc1)C(=O)N[C@]1(C)CCCCC#CC#CCCC[C@@](C)(C(=O)N[C@@H](C)C(=O)N[C@@H](C)C(=O)NC(C)(CCC(=O)O)C(=O)N[C@@H](C)C(=O)N[C@@H](C)C(=O)N[C@H](C)C(N)=O)NC(=O)[C@H](CC2CCC2)NC(=O)[C@H](CCC(N)=O)NC(=O)[C@H](C)NC(=O)[C@H](Cc2c[nH]c3ccccc23)NC(=O)[C@H](Cc2ccc(O)cc2)NC(=O)[C@H](CCC(=O)O)NC1=O)[C@@H](C)O (stereo partly shown) [MP-467, Ac-K(N3)-(betaAla)-LTF(X)EYWAQ(Cba)(X)AA(a-methly-Glu)AA(DAla)-NH2]
EC50 ([1]; 0% FBS 4Hr, read-out: LDH: Cytotoxicity assay EC50): > 50.7 µM
EC50 ([1]; 10% FBS 16Hr, read-out: LDH: Cytotoxicity assay EC50): > 50.7 µM

CC(C)C[C@H](NC(=O)CCNC(=O)[C@@H](N)CCCCN=[N+]=[N-])C(=O)N[C@H](C(=O)N[C@@H](Cc1ccccc1)C(=O)N[C@]1(C)CCCCCCC=CCCC[C@@](C)(C(=O)N[C@@H](CO)C(=O)N[C@@H](C)C(=O)N[C@@H](C)C(N)=O)NC(=O)[C@H](CC2CCC2)NC(=O)[C@H](CCC(N)=O)NC(=O)[C@H](C)NC(=O)[C@H](Cc2c[nH]c3ccccc23)NC(=O)[C@H](Cc2ccc(O)cc2)NC(=O)[C@H](CCC(=O)O)NC1=O)[C@@H](C)O [MP-618]
EC50 ([1]; LDH: Cytotoxicity assay: EC50): > 50.7 µM

CC(=O)N[C@@H](CCCCN=[N+]=[N-])C(=O)NCCC(=O)N[C@@H](CC(C)C)C(=O)N[C@@H](CCC(=O)O)C(=O)N[C@@H](Cc1ccccc1)C(=O)N[C@@]1(C)CCCCCCC=CCCC[C@@](C)(C(=O)N[C@@H](CO)C(=O)N[C@@H](C)C(=O)N[C@@H](C)C(N)=O)NC(=O)[C@H](CC2CCC2)NC(=O)[C@H](CCC(N)=O)NC(=O)[C@H](C)NC(=O)[C@H](Cc2c[nH]c3ccccc23)NC(=O)[C@H](Cc2ccc(O)cc2)NC(=O)[C@H](CCC(=O)O)NC1=O [MP-630]
EC50 ([1]; LDH: Cytotoxicity assay: EC50): > 50.7 µM

CC(=O)N[C@@H](CN)C(=O)N[C@@H](CN)C(=O)NCCCCCC(=O)N[C@H](C(=O)N[C@@H](CO)C(=O)N[C@@H](Cc1ccccc1)C(=O)N[C@]1(C)CCCCCCC=CCCC[C@@](C)(C(=O)N[C@@H](CCC(=O)O)C(=O)N[C@@H](CC(N)=O)C(=O)N[C@@H](Cc2ccccc2)C(N)=O)NC(=O)[C@H](CC(C)C)NC(=O)[C@H](CC(C)C)NC(=O)[C@H](C)NC(=O)[C@H](Cc2c[nH]c3ccccc23)NC(=O)[C@H](Cc2ccc(O)cc2)NC(=O)[C@H](CCC(=O)O)NC1=O)[C@@H](C)O [MP-663] (Ac-[Dap][Dap][Ahx]TSF[R8]EYWALL[S5]ENF-NH2; staple 7-14)
EC50 ([1]; LDH: Cytotoxicity assay EC50): > 50 µM

CC(=O)N[C@H](CC(C)C)C(=O)N[C@H](C(=O)N[C@@H](Cc1ccccc1)C(=O)N[C@]1(C)CCCCCCC=CCCC[C@@](C)(C(=O)N[C@@H](CO)C(=O)N[C@@H](C)C(=O)N[C@H](C)C(N)=O)NC(=O)[C@H](CC2CCC2)NC(=O)[C@H](CC(C)C)NC(=O)[C@H](CCC(N)=O)NC(=O)[C@H](Cc2c[nH]c3ccccc23)NC(=O)[C@H](Cc2ccc(O)cc2)NC(=O)[C@H](CCC(=O)O)NC1=O)[C@@H](C)O [MP-7202]
EC50 ([1]; LDH: Cytotoxicity assay: EC50): > 50.6 µM

— publication PMC10786919, “Design-rules for stapled peptides with in vivo activity and their application to Mdm2/X antagonists” (Nature Communications, 2024)
